Laboratory results reported in paper PMC6104605, “Discovery of new chromen-4-one derivatives as telomerase inhibitors through regulating expression of dyskerin” (Journal of Enzyme Inhibition and Medicinal Chemistry, 2018).

What was measured:
human glioma cell U87 = assay: MTT anticancer assay, U87; type: cell-based; details: 48 h exposure, mean ± SD, dash = footnote d 'None'
Protocol: (§1) The MTT was purchased from Sigma. Cell Cycle Analysis Kit and Apoptosis Analysis Kit were purchased from Bestbio (China). Mitochondrial membrane potential assay kit with JC-1 was purchased from Beyotime (China). All the materials were used as received without further purification unless noted specifically. The cell culture was maintained on DMEM medium (Hyclone, US) supplemented with 10% fetal bovine serum (Sijiqing, China), 100 U/mL penicillin and 100 µg/mL streptomycin in 25-cm^2 culture flasks at 37 °C humidified atmosphere with 5% CO2. Drugs were dissolved in DMSO and filtered through 0.22-µm pore-size filter units before addition to cell line appropriate media. When tumor cells were grown to log phase, diluting to 5 × 10^4 cells mL^−1 with the complete medium, 100 µL of the obtained cell suspension was added to each well of 96-well culture plates. The subsequent incubation was performed at 37 °C, 5% CO2 atmosphere for 48 h before subjecting to anti-proliferation assessment. After 48-h exposure period, 20 µL of PBS containing 5 mg·mL^−1 of MTT was added to each well. After 4 h, the medium was replaced by 150 µL DMSO to dissolve the purple formazan crystals produced. The absorbance at 492 nm of each well was measured on an ELISA plate reader. The data represented the mean of three experiments in triplicate and were expressed as means ± SD. The IC50 value was defined as the concentration at which 50% of the cells could survive. The following human tumor cell lines were used in the assay: human gastric cancer cells SGC-7901, human liver cancer cell SMMC-7721 and HepG2, human cervical cancer cell Hela and human glioma cell U87.

[1] = system: human cervical cancer cell Hela; assay: MTT anticancer assay, Hela; type: cell-based; details: MTT, 48 h exposure, mean ± SD, read-out: IC50 Hela
Protocol: as §1, with “The absorbance at 492 nm of each well was measured on an ELISA plate reader.” left out, “SD.” for “SD. The IC50 value was defined as the concentration at which 50% of the cells could survive. The following human tumor cell lines were used in the assay: human gastric cancer cells SGC-7901, human liver cancer cell SMMC-7721 and HepG2, human cervical cancer cell Hela and human glioma cell U87.”

dyskerin = assay: Western blot, dyskerin; type: cell-based, human; details: SGC-7901, 1, 2 and 4 μM, 48 h
Protocol: (§2) An equivalent volume of 5 × SDS-sample buffer was added to cell lysates and boiled for 10 min. The supernatants were subjected to electrophoresis on SDS-PAGE gels and transferred to PVDF membrane by using a Bio-Rad apparatus. Membranes were blocked for 3 h at room temperature in TBST containing 5% non-fat dried milk and probed overnight at 4 °C with antibodies. CyclinD1 (abcam, ab134175, 1:10000), CDC25A (abcam, ab156574, 1:1000), CDC25C (abcam, ab32051, 1:1000), bcl-2 (abcam, ab32124,1:1000), bax (abcam, ab32503, 1:1000), PARP (abcam, ab191217, 1:1000), γH2AX (abcam, ab81299, 1:5000), dyskerin (abcam, ab156877, 1:1000), NHP2 (abcam, ab180498, 1:1000), NOP10 (abcam, ab133726, 1:1000) antibody was performed with rabbit primary antibody. Otherwise, β-actin (ZSGB-BIO, 1:1000) detection was performed with mouse primary antibody which was served as internal controls. Protein bands of β-actin was visualised using peroxidase-labeled goat anti-mouse and others were visualised using peroxidase-labeled goat anti-rabbit secondary antibody (1:5000 dilution, 1 h, room temperature), and the protein expression signals were detected by the BeyoECL Plus (Beyotime).

[2] = Octanol water partition coefficient, shake flask; type: physicochemical; details: octanol/PBS pH 7.4, 37 °C
Protocol: Octanole water partition coefficients was measured by the method of shake flask with slight modification. The aqueous phase was replaced by PBS (pH 7.4). First, the phase of octanol and the aqueous were saturated with each other. Then, the mixture containing title compounds was shaken at 37 °C. After 24 h, the mixture was centrifuged at 4000 rpm for 30 min, followed by the measured with ultraviolet spectrophotometer. At last, logP values were calculated.

[3] = system: DEN-induced rat hepatic tumor; assay: In vivo tumor model, DEN-induced rat hepatic tumor (HE histopathology); details: DEN-induced SD rats, 50 mg·kg−1 orally once a day, 10 weeks
Protocol: SD rats, male, 120 ∼ 160 g. 120 rats were divided randomly into two groups containing 12 normal rats and 108 DEN model rats. Rats were gavaged daily with DEN 8 mg/kg, once a day, 6 days a week. Normal saline rats were given the same volume, molding to 10 weeks. 60 model rats were randomly divided into five groups, 12 rats in each group, continued to give DEN; normal rats were given normal saline, molding to 16 week, stopped giving DEN. Compound 5i treatment group from the 10th week, 50 mg·kg^−1 was orally given, once a day, for 10 consecutive weeks. Similar parts of left lobe of liver were taken and fixed by 4% polyformaldehyde solution, embedded in paraffin, sliced and HE stained, for histopathological observation.

[4] = system: human normal gastric mucosa cell (GES-1); assay: Proliferative inhibition of human normal cell (MTT); type: cell-based; details: GES1; MTT, human normal gastric mucosa cell; read-out: GES-1 IC50
Text: In order to determine the selective cell toxicity of selected compounds. We subsequently conducted a proliferative inhibition assay with human normal gastric mucosa cell (GES-1).

NOP10 = assay: Western blot, NOP10; type: cell-based, human; details: SGC-7901, 1, 2 and 4 μM, 48 h
Protocol: as §2

[5] = system: human liver cancer cell HepG2; assay: MTT anticancer assay, HepG2; type: cell-based; details: 48 h exposure, mean ± SD, dash = footnote d 'None'
Protocol: as §1

CDC25C = assay: Western blot, CDC25C; type: cell-based, human; details: SGC-7901, 1, 2 and 4 μM, 48 h
Protocol: as §2

Bcl-2/Bax = assay: Western blot, Bcl-2/Bax; type: cell-based, human; details: SGC-7901, 1, 2 and 4 μM, 48 h
Protocol: as §2

NHP2 = assay: Western blot, NHP2; type: cell-based, human; details: SGC-7901, 1, 2 and 4 μM, 48 h
Protocol: as §2

CDC25A = assay: Western blot, CDC25A; type: cell-based, human; details: SGC-7901, 1, 2 and 4 μM, 48 h
Protocol: as §2

## COc1cc(OC)c2c(=O)c(OCCCCN3CCN(C(=O)c4ccncc4)CC3)c(-c3cc(OC)c(OC)c(OC)c3)oc2c1 [Compound 5i, 3-(4-(4-isonicotinoylpiperazin-1-yl)butoxy)-5,7-dimethoxy-2-(3,4,5-trimethoxyphenyl)-4H-chromen-4-one]
Human glioma cell U87
  IC50: 2.5 ± 0.11 µM
[1]
  IC50: 1.02 ± 0.21 µM
dyskerin
  protein level of dyskerin (western blot): significantly reduced
[2]; octanol/PBS (pH 7.4), pH 7.4, shake flask, read-out: Log p (octanole water partition coefficient)
  logP at 24 h: 3.01
[2]; shake flask, 24 h
  Log p (octanole water partition coefficient): 2.81
[3]
  pathological changes of rat hepatic tumor (HE staining): significantly improve pathological changes
[4]
  IC50: 3710 ± 330 µM
NOP10
  NOP10 protein level (western blot): no significant changes
[5]
  IC50: 4.12 ± 0.51 µM
CDC25C
  expression of CAC25C (western blot): significantly decrease
Bcl-2/Bax
  proportion of Bcl-2/Bax (western blot): reduced
NHP2
  NHP2 protein level (western blot): no significant changes
CDC25A
  expression of CDC25A (western blot): significantly decrease
